# Source: patent US5561126A, “4-oxa-1-azabicyclo [3,2,0] heptan-7-one derivatives as antitumor agents” (Taiho Pharmaceutical Co., Ltd., priority 1992, dated 1996)
# Key:
# KB cells = assay: In Vitro KB Cell Cytotoxicity Assay (crystal violet); format: cell-based; settings: Homo sapiens, 72 h, read-out: Cytotoxicity TD50 KB
# Description: KB cells were cultivated in Eagles minimum essential medium supplemented with 10% calf serum and incubated at 37° C. in a humidified 5% CO2 atmosphere to prepare a cell stock. Cells were counted using a neubauer hemocytometer and seeded in 96 well plates at 100 μl of 3×10^4 cells/ml and cultured for one day. […] Control wells were identical except that test compound was absent. These were cultured for three days. […] Then stained with 100 μl of 0.05% crystal violet for 15 minutes, washed with water and dried. The wells were eluted with 100 μl of 0.05M NaH2 PO4 /ethanol (1:1 v/v) and read at OD540 on a multiscan spectrophotometer. TD50 values were calculated using the following formula.
# Sarcoma 180 = assay: In Vivo Antitumor Activity Against Sarcoma 180; settings: for Mortality in 12 days: i.p., days 1, 5 and 9
# Description: Sarcoma 180, 5×10^6 cells were inoculated by S.C. to male ICR mice (6 weeks old) on day 0. Drugs were administered on days 1, 5 and 9. Mice were killed and tumor weight was measured on day 12 after transplantation. The percentage inhibition of tumor growth was calculated from the mean tumor weight of the treated group compared with that of the control group. Number of mice used in each group was between 6 to 10.
# [1] = Mus musculus, Sarcoma-180, ip, 288 h, read-out: % Inhibition of tumor growth
SMILES,CC50 (KB cells) [µg/mL],other results
"Cc1ccc(S(=O)(=O)C[C@H]2CN3C(=O)C[C@@H]3O2)cc1 (racemic) [compound 51, (3RS, 5SR)-3-(4-Methylbenzenesulfonyl)methyl-4-oxa-1-azabicyclo[3,2,0]heptan-7-one]",1,
"COc1ccc(COC[C@H]2CN3C(=O)C[C@H]3O2)cc1OC [39B, (3R,5R)-3-(3,4-Dimethoxybenzyloxymethyl)-4-oxa-1-azabicyclo[3,2,0] heptan-7-one]",0.57,
O=C(OC[C@H]1CN2C(=O)C[C@@H]2O1)c1ccc(O)cc1 (relative stereo) [compound 21],2.2,Mortality in 12 days (Sarcoma 180; 50 mg/kg/day): 0/6; inhibition in vivo at 50 mg/kg (Sarcoma 180; [1]): 48.3%
"O=C([O-])c1ccccc1C(=O)OC[C@H]1CN2C(=O)C[C@@H]2O1.[Na+] (racemic) [compound 25, Sodium (3RS, 5SR)-2-[(4-oxa-1-azabicyclo [3,2,0]heptan-7-one-3-yl)methyloxycarbonyl]benzoate]",1.5,Mortality in 12 days (Sarcoma 180; 100 mg/kg/day): 2/6; inhibition in vivo at 100 mg/kg (Sarcoma 180; [1]): 44.1%
"O=C(OC[C@H]1CN2C(=O)C[C@@H]2O1)c1ccc(F)cc1 (racemic) [compound 31, (3RS, 5SR)-3-(4-Fluorobenzoyloxymethyl)-4-oxa-1-azabicyclo [3,2,0]heptan-7-one]",0.4,Mortality in 12 days (Sarcoma 180; 12.5 mg/kg/day): 0/7; Mortality in 12 days (Sarcoma 180; 25 mg/kg/day): 0/7; inhibition in vivo at 12.5 mg/kg (Sarcoma 180; [1]): 53.2%; inhibition in vivo at 25 mg/kg (Sarcoma 180; [1]): 69.4%
O=C(O)CCC(=O)OC[C@H]1CN2C(=O)C[C@@H]2O1 (relative stereo) [compound 26],9.8,
"O=C1C[C@@H]2O[C@@H](CS(=O)(=O)Cc3ccccc3)CN12 (racemic) [compound 43, (3RS, 5SR)-3-Benzylsulfonylmethyl-4-oxa-1-azabicyclo[3,2,0]heptan-7-one]",0.5,Mortality in 12 days (Sarcoma 180; 12.5 mg/kg/day): 0/6; inhibition in vivo at 12.5 mg/kg (Sarcoma 180; [1]): 19.5%
"COc1cc(C(=O)OC[C@H]2CN3C(=O)C[C@@H]3O2)cc(OC)c1O (racemic) [compound 35, (3RS, 5SR)-3-(4-Hydroxy-3,5-dimethoxybenzoyloxymethyl)-4-oxa-1-azabicyclo [3,2,0]heptan-7-one]",0.8,
"Nc1ccc(C(=O)OC[C@H]2CN3C(=O)C[C@@H]3O2)cc1 (racemic) [compound 34, (3RS, 5SR)-3-(4-Aminobenzoyloxymethyl)-4-oxa-1-azabicyclo [3,2,0]heptan-7-one]",0.4,
"O=C(O)C1CCCCC1C(=O)OC[C@H]1CN2C(=O)C[C@@H]2O1 (relative stereo) [compound 24, Sodium (3RS, 5SR)-2-(4-oxa-1-azabicyclo [3,2,0]heptan-7-one-3-methyloxycarbonyl)cyclohexyl-2-carboxylate]",0.7,
"O=C(O)/C=C/C(=O)OC[C@H]1CN2C(=O)C[C@@H]2O1 (relative stereo) [compound 27, Sodium [(3RS, 5SR)-(4-oxa-1-azabicyclo[3,2,0]heptan-7-one-3-yl)methyl]fumarate]",2.4,
"O=C(CC(O)C(=O)OC[C@H]1CN2C(=O)C[C@@H]2O1)OC[C@H]1CN2C(=O)C[C@@H]2O1 (mixture of isomers) [compound 28, Bis [(3RS, 5SR)-(4-oxa-1-azabicyclo[3,2,0]heptan-7-one-3-yl)-methyl]-2-hydroxysuccinate]",0.3,
Cc1cc(C)c(C(=O)OC[C@H]2CN3C(=O)C[C@@H]3O2)c(C)c1 (relative stereo) [compound 19],2,
"O=C1C[C@@H]2O[C@@H](CSc3ccccc3)CN12 (racemic) [compound 44, (3RS, 5SR)-3-Phenylthiomethyl-4-oxa-1-azabicyclo[3,2,0]heptan-7-one]",3,
"O=C(OC[C@H]1CN2C(=O)C[C@@H]2O1)C(O)C(O)C(=O)OC[C@H]1CN2C(=O)C[C@@H]2O1 (mixture of isomers) [compound 29, Bis [(3RS, 5SR)-(4-oxa-1-azabicyclo[3,2,0]heptan-7-one-3-yl)-methyl]-2,3-dihydroxysuccinate]",0.3,
"O=C(OC[C@H]1CN2C(=O)C[C@@H]2O1)c1cc(F)c(F)cc1F (racemic) [compound 32, (3RS, 5SR)-3-(2,4,5-Trifluorobenzoyloxymethyl)-4-oxa-1-azabicyclo[3,2,0]heptan-7-one]",0.3,
"O=C(/C=C\C(=O)OC[C@H]1CN2C(=O)C[C@@H]2O1)OC[C@H]1CN2C(=O)C[C@@H]2O1 (relative stereo) [compound 30, Bis [(3RS, 5SR)-(4-oxa-1-azabicyclo[3,2,0]heptan-7-one-3-yl)-methyl]maleate]",0.05,Mortality in 12 days (Sarcoma 180; 12.5 mg/kg/day): 0/6; Mortality in 12 days (Sarcoma 180; 25 mg/kg/day): 0/6; inhibition in vivo at 12.5 mg/kg (Sarcoma 180; [1]): 34%; inhibition in vivo at 25 mg/kg (Sarcoma 180; [1]): 76.9%
"O=C1C[C@@H]2O[C@@H](CSCc3ccccc3)CN12 (racemic) [compound 41, (3RS,5SR)-3-Benzylthiomethyl-4-oxa-1-azabicyclo[3,2,0]heptan-7-one]",5,Mortality in 12 days (Sarcoma 180; 6.25 mg/kg/day): 0/6; inhibition in vivo at 6.25 mg/kg (Sarcoma 180; [1]): 17.1%
"O=C1C[C@@H]2O[C@H](CCO)CN12 (racemic) [compound 50, (3RS, 5SR)-3-Hydroxyethyl-4-oxa-1-azabicyclo[3,2,0]heptan-7-one]",0.7,Mortality in 12 days (Sarcoma 180; 50 mg/kg/day): 0/6; inhibition in vivo at 50 mg/kg (Sarcoma 180; [1]): 65.3%
"N#Cc1ccc(C(=O)OC[C@H]2CN3C(=O)C[C@@H]3O2)cc1 (relative stereo) [compound 33, (3RS, 5SR)-3-(4-Cyanobenzoyloxyymethyl)-4-oxa-1-azabicyclo [3,2,0]heptan-7-one]",0.3,
CCCCC(C)C(=O)OC[C@H]1CN2C(=O)C[C@@H]2O1 (relative stereo) [compound 12],0.4,
"C#CCCC(=O)OC[C@H]1CN2C(=O)C[C@@H]2O1 (racemic) [compound 17, (3RS, 5SR)-3-(4-Pentynoyloxymethyl)-4-oxa-1-azabicyclo [3,2,0]heptan-7-one]",0.27,
"O=C(OC[C@H]1CN2C(=O)C[C@@H]2O1)c1ccccc1 (racemic) [compound 18, (3RS, 5SR)-3-Benzoyloxymethyl-4-oxa-1-azabicyclo[3,2,0]heptan-7-one]",5,
"O=C(O)COc1ccc(C(=O)OC[C@H]2CN3C(=O)C[C@@H]3O2)cc1 (relative stereo) [compound 23, Sodium (3RS, 5SR)-4-(4-oxa-1-azabicyclo [3,2,0]heptan-7-one-3-methyloxycarbonyl)phenoxyacetate]",8.7,Mortality in 12 days (Sarcoma 180; 50 mg/kg/day): 0/6; inhibition in vivo at 50 mg/kg (Sarcoma 180; [1]): 23.7%
"CC(C)C(=O)OC[C@H]1CN2C(=O)C[C@@H]2O1 (racemic) [compound 9, (3RS, 5SR)-3-(2-Methylpropionyloxymethyl)-4-oxa-1-azabicyclo [3,2,0]heptan-7-one]",0.4,
O=C(OC[C@H]1CN2C(=O)C[C@@H]2O1)c1ccc(O)c(O)c1 (relative stereo) [compound 22],2.5,
"O=C1C[C@@H]2O[C@@H](CS(=O)(=O)c3ccccc3)CN12 (racemic) [compound 46, (3RS, 5SR)-3-Phenylsulfonylmethyl-4-oxa-1-azabicyclo[3,2,0]heptan-7-one]",2,
"CC(C)CC(=O)OC[C@H]1CN2C(=O)C[C@@H]2O1 (relative stereo) [compound 10, (3RS, 5SR)-3-Methylbutyryloxymethyl-4-oxa-1-azabicyclo [3,2,0]heptan-7-one]",0.25,
COc1ccc(COC[C@H]2CN3C(=O)C[C@@H]3O2)cc1OC [39A],0.56,
CC(C)CCC(=O)OC[C@H]1CN2C(=O)C[C@@H]2O1 (relative stereo) [compound 11],0.4,
